Laboratory results published in patent US20250361268A1, “NOVEL ANTI-INFLAMMATORY PEPTIDE AND USE THEREOF” (NOVACELL TECHNOLOGY INC., priority 2022, published 2025).
One block for each compound: values may come before it. Peptide text beside a SMILES is read from it.

Columns and labels:
[1] = molecular target: T1, FPR2 (Homo sapiens, UniProt P25090); experiment: Change in calcium activity by peptide (Fura-2) in RBL cells overexpressing FPR2; type: cell-based; conditions: calcium activity (Fura-2), graded per Table 3, read-out: EC50 for [Ca^2+] FPR2
T1 construct: expressed in transfected cells; host or cells: RBL cells (RBL-FPR2)
T1 sequence (P25090 1-351): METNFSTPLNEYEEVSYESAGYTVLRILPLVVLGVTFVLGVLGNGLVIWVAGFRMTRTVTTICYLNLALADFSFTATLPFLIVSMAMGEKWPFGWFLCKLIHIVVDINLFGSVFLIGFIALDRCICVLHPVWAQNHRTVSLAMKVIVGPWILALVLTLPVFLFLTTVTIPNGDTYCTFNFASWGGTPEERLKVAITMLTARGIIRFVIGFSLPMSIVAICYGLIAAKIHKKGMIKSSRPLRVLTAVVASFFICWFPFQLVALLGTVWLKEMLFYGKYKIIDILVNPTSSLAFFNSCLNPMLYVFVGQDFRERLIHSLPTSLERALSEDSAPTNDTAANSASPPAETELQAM
In short: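 Peptide-induced intracellular calcium change measured by Fura-2 fluorescence on a plate reader. Cells: RBL line overexpressing FPR2, dye-loaded 1 h at 37 °C then 30 min at RT in dark; peptides from 0.5 mM water/50% DMSO stocks, diluted in HBSS with 20 mM HEPES.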

[2] = molecular target: T2, FPR1 (Homo sapiens, UniProt P21462); experiment: Change in calcium activity by peptide, FPR1 activation effect; type: cell-based; conditions: calcium activity (Fura-2), graded per Table 3, read-out: EC50 for [Ca^2+] FPR1
T2 sequence (P21462 1-350): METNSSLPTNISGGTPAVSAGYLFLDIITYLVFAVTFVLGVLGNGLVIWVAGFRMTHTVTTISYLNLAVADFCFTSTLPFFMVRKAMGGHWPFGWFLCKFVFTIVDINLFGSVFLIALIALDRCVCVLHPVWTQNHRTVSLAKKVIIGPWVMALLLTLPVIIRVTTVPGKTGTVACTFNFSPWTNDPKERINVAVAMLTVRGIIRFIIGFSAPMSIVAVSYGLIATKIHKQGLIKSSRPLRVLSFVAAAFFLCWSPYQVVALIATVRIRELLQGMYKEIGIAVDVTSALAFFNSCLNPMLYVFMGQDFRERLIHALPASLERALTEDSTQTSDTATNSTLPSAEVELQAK
In short: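 Calcium flux induced by peptide addition was monitored on a FlexStation 3 plate reader. Before this, cells seeded a day earlier (3×10^5/well) took up the Fura-2 dye for 1 h at 37 °C plus 30 min dark at room temperature.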

SMILES: CCCCCCCC(=O)N[C@@H](CCCNC(=N)N)C(=O)N[C@@H](CCSC)C(=O)N[C@@H](CCCNC(=N)N)C(=O)N[C@@H](Cc1ccc(O)cc1)C(=O)N[C@@H](Cc1ccc(O)cc1)C(=O)N[C@H](C(=O)N[C@H](CCSC)C(N)=O)C(C)C [Peptide 99] (HELM PEPTIDE1{[CCCCCCCC(=O)[*:2]].R.M.R.Y.Y.V.[dM].[am]}$$$$V2.0)
EC50 [1]: 11 to 100 nM
EC50 [2]: 1000 to 10000 nM

SMILES: CSCC[C@@H](NC(=O)[C@@H](NC(=O)[C@H](Cc1c[nH]c2ccccc12)NC(=O)[C@H](Cc1ccc(O)cc1)NC(=O)[C@H](CCCCN)NC(=O)[C@H](Cc1c[nH]c2ccccc12)NC(=O)[C@H](CCCCN)NC(C)=O)C(C)C)C(N)=O [Peptide 103] (HELM PEPTIDE1{[ac].K.W.K.Y.W.V.[dM].[am]}$$$$V2.0)
EC50 [1]: 11 to 100 nM
EC50 [2]: 1000 to 10000 nM

SMILES: CSCC[C@H](N)C(=O)N[C@@H](CCCNC(=N)N)C(=O)N[C@@H](Cc1ccc(O)cc1)C(=O)N[C@@H](Cc1c[nH]c2ccccc12)C(=O)N1CCC[C@H]1C(=O)N[C@H](CCSC)C(N)=O [Peptide 110] (HELM PEPTIDE1{M.R.Y.W.P.[dM].[am]}$$$$V2.0)
EC50 [1]: < 10 nM
EC50 [2]: 101 to 1000 nM

SMILES: CSCC[C@H](NC(C)=O)C(=O)N[C@@H](CCCNC(=N)N)C(=O)N[C@@H](Cc1ccc(O)cc1)C(=O)N[C@@H](Cc1c[nH]c2ccccc12)C(=O)N1CCC[C@H]1C(=O)N[C@H](CCSC)C(N)=O [Peptide 111] (HELM PEPTIDE1{[ac].M.R.Y.W.P.[dM].[am]}$$$$V2.0)
EC50 [1]: < 10 nM
EC50 [2]: 1000 to 10000 nM

SMILES: CCCC(=O)N[C@@H](CCSC)C(=O)N[C@@H](CCCNC(=N)N)C(=O)N[C@@H](Cc1ccc(O)cc1)C(=O)N[C@@H](Cc1c[nH]c2ccccc12)C(=O)N1CCC[C@H]1C(=O)N[C@H](CCSC)C(N)=O [Peptide 112] (HELM PEPTIDE1{[CCCC(=O)[*:2]].M.R.Y.W.P.[dM].[am]}$$$$V2.0)
EC50 [1]: < 10 nM
EC50 [2]: 1000 to 10000 nM

SMILES: CSCC[C@@H](NC(=O)[C@@H]1CCCN1C(=O)[C@H](Cc1c[nH]c2ccccc12)NC(=O)[C@H](Cc1ccc(O)cc1)NC(=O)[C@H](CCCNC(=N)N)NC(=O)[C@H](Cc1c[nH]c2ccccc12)NC(=O)[C@H](CCCNC(=N)N)NC(C)=O)C(N)=O [Peptide 117] (HELM PEPTIDE1{[ac].R.W.R.Y.W.P.[dM].[am]}$$$$V2.0)
EC50 [1]: < 10 nM
EC50 [2]: 101 to 1000 nM

SMILES: CSCC[C@@H](NC(=O)[C@@H]1CCCN1C(=O)[C@H](Cc1c[nH]c2ccccc12)NC(=O)[C@H](Cc1ccc(O)cc1)NC(=O)[C@H](CCCNC(=N)N)NC(=O)[C@@H](N)Cc1c[nH]c2ccccc12)C(N)=O [Peptide 118] (HELM PEPTIDE1{W.R.Y.W.P.[dM].[am]}$$$$V2.0)
EC50 [1]: < 10 nM
EC50 [2]: 101 to 1000 nM

SMILES: CSCC[C@H](NC(=O)[C@H](CCCNC(=N)N)NC(C)=O)C(=O)N[C@@H](CCCNC(=N)N)C(=O)N[C@@H](Cc1ccc(O)cc1)C(=O)N[C@@H](Cc1ccc(O)cc1)C(=O)N1CCC[C@H]1C(=O)N[C@H](CCSC)C(N)=O [Peptide 119] (HELM PEPTIDE1{[ac].R.M.R.Y.Y.P.[dM].[am]}$$$$V2.0)
EC50 [1]: < 10 nM
EC50 [2]: 101 to 1000 nM

SMILES: CSCC[C@H](N)C(=O)N[C@@H](CCCNC(=N)N)C(=O)N[C@@H](Cc1ccc(O)cc1)C(=O)N[C@@H](Cc1ccc(O)cc1)C(=O)N1CCC[C@H]1C(=O)N[C@H](CCSC)C(N)=O [Peptide 120] (HELM PEPTIDE1{M.R.Y.Y.P.[dM].[am]}$$$$V2.0)
EC50 [1]: < 10 nM
EC50 [2]: 101 to 1000 nM

SMILES: CSCC[C@@H](NC(=O)[C@@H]1CCCN1C(=O)[C@H](Cc1ccc(O)cc1)NC(=O)[C@H](Cc1ccc(O)cc1)NC(=O)[C@H](CCCNC(=N)N)NC(=O)[C@H](Cc1c[nH]c2ccccc12)NC(=O)[C@H](CCCNC(=N)N)NC(C)=O)C(N)=O [Peptide 121] (HELM PEPTIDE1{[ac].R.W.R.Y.Y.P.[dM].[am]}$$$$V2.0)
EC50 [1]: < 10 nM
EC50 [2]: 101 to 1000 nM

SMILES: CSCC[C@@H](NC(=O)[C@@H]1CCCN1C(=O)[C@H](Cc1ccc(O)cc1)NC(=O)[C@H](Cc1ccc(O)cc1)NC(=O)[C@H](CCCNC(=N)N)NC(=O)[C@H](Cc1c[nH]c2ccccc12)NC(C)=O)C(N)=O [Peptide 122] (HELM PEPTIDE1{[ac].W.R.Y.Y.P.[dM].[am]}$$$$V2.0)
EC50 [1]: < 10 nM
EC50 [2]: 101 to 1000 nM

SMILES: CSCC[C@@H](NC(=O)[C@H](Cc1ccc(O)cc1)NC(=O)[C@H](Cc1ccc(O)cc1)NC(=O)[C@H](Cc1ccc(O)cc1)NC(=O)[C@H](CCCNC(=N)N)NC(=O)[C@H](Cc1c[nH]c2ccccc12)NC(=O)[C@@H](N)CCCNC(=N)N)C(N)=O [Peptide 123] (HELM PEPTIDE1{R.W.R.Y.Y.Y.[dM].[am]}$$$$V2.0)
EC50 [1]: < 10 nM
EC50 [2]: > 10000 nM

SMILES: CSCC[C@@H](NC(=O)[C@H](Cc1ccc(O)cc1)NC(=O)[C@H](Cc1ccc(O)cc1)NC(=O)[C@H](Cc1ccc(O)cc1)NC(=O)[C@H](CCCNC(=N)N)NC(=O)[C@H](Cc1c[nH]c2ccccc12)NC(C)=O)C(N)=O [Peptide 124] (HELM PEPTIDE1{[ac].W.R.Y.Y.Y.[dM].[am]}$$$$V2.0)
EC50 [1]: 11 to 100 nM
EC50 [2]: 1000 to 10000 nM

More lines, now with the values ahead:

EC50 [1]: < 10 nM
EC50 [2]: 1000 to 10000 nM
SMILES: CSCC[C@H](N)C(=O)N[C@@H](CCCNC(=N)N)C(=O)N[C@@H](Cc1ccc(O)cc1)C(=O)N[C@@H](Cc1ccc(O)cc1)C(=O)N[C@H](C(=O)N[C@H](CCSC)C(N)=O)C(C)C [Peptide 100] (HELM PEPTIDE1{M.R.Y.Y.V.[dM].[am]}$$$$V2.0)

EC50 [1]: < 10 nM
EC50 [2]: 1000 to 10000 nM
SMILES: CSCC[C@@H](NC(=O)[C@@H](NC(=O)[C@H](Cc1c[nH]c2ccccc12)NC(=O)[C@H](Cc1ccc(O)cc1)NC(=O)[C@H](CCCNC(=N)N)NC(=O)[C@H](Cc1c[nH]c2ccccc12)NC(=O)[C@@H](N)CCCNC(=N)N)C(C)C)C(N)=O [Peptide 101] (HELM PEPTIDE1{R.W.R.Y.W.V.[dM].[am]}$$$$V2.0)

EC50 [1]: < 10 nM
EC50 [2]: 101 to 1000 nM
SMILES: CSCC[C@@H](NC(=O)[C@@H](NC(=O)[C@H](Cc1c[nH]c2ccccc12)NC(=O)[C@H](Cc1ccc(O)cc1)NC(=O)[C@H](CCCNC(=N)N)NC(=O)[C@H](Cc1c[nH]c2ccccc12)NC(C)=O)C(C)C)C(N)=O [Peptide 102] (HELM PEPTIDE1{[ac].W.R.Y.W.V.[dM].[am]}$$$$V2.0)

EC50 [1]: < 10 nM
EC50 [2]: 1000 to 10000 nM
SMILES: CSCC[C@H](NC(=O)[C@H](CCCNC(=N)N)NC(C)=O)C(=O)N[C@@H](CCCNC(=N)N)C(=O)N[C@@H](Cc1ccc(O)cc1)C(=O)N[C@@H](Cc1c[nH]c2ccccc12)C(=O)N[C@H](C(=O)N[C@H](CCSC)C(N)=O)C(C)C [Peptide 104] (HELM PEPTIDE1{[ac].R.M.R.Y.W.V.[dM].[am]}$$$$V2.0)

EC50 [1]: < 10 nM
EC50 [2]: 101 to 1000 nM
SMILES: CSCC[C@H](NC(C)=O)C(=O)N[C@@H](CCCNC(=N)N)C(=O)N[C@@H](Cc1ccc(O)cc1)C(=O)N[C@@H](Cc1c[nH]c2ccccc12)C(=O)N[C@H](C(=O)N[C@H](CCSC)C(N)=O)C(C)C [Peptide 105] (HELM PEPTIDE1{[ac].M.R.Y.W.V.[dM].[am]}$$$$V2.0)

EC50 [1]: < 10 nM
EC50 [2]: 101 to 1000 nM
SMILES: CSCC[C@H](NC(=O)[C@@H](N)CCCNC(=N)N)C(=O)N[C@@H](CCCNC(=N)N)C(=O)N[C@@H](Cc1ccc(O)cc1)C(=O)N[C@@H](Cc1c[nH]c2ccccc12)C(=O)N1CCC[C@H]1C(=O)N[C@H](CCSC)C(N)=O [Peptide 106] (HELM PEPTIDE1{R.M.R.Y.W.P.[dM].[am]}$$$$V2.0)

EC50 [1]: < 10 nM
EC50 [2]: 101 to 1000 nM
SMILES: CSCC[C@H](NC(=O)[C@H](CCCNC(=N)N)NC(C)=O)C(=O)N[C@@H](CCCNC(=N)N)C(=O)N[C@@H](Cc1ccc(O)cc1)C(=O)N[C@@H](Cc1c[nH]c2ccccc12)C(=O)N1CCC[C@H]1C(=O)N[C@H](CCSC)C(N)=O [Peptide 107] (HELM PEPTIDE1{[ac].R.M.R.Y.W.P.[dM].[am]}$$$$V2.0)

EC50 [1]: < 10 nM
EC50 [2]: 101 to 1000 nM
SMILES: CCCC(=O)N[C@@H](CCCNC(=N)N)C(=O)N[C@@H](CCSC)C(=O)N[C@@H](CCCNC(=N)N)C(=O)N[C@@H](Cc1ccc(O)cc1)C(=O)N[C@@H](Cc1c[nH]c2ccccc12)C(=O)N1CCC[C@H]1C(=O)N[C@H](CCSC)C(N)=O [Peptide 108] (HELM PEPTIDE1{[CCCC(=O)[*:2]].R.M.R.Y.W.P.[dM].[am]}$$$$V2.0)

EC50 [1]: < 10 nM
EC50 [2]: 1000 to 10000 nM
SMILES: CCCCCCCC(=O)N[C@@H](CCCNC(=N)N)C(=O)N[C@@H](CCSC)C(=O)N[C@@H](CCCNC(=N)N)C(=O)N[C@@H](Cc1ccc(O)cc1)C(=O)N[C@@H](Cc1c[nH]c2ccccc12)C(=O)N1CCC[C@H]1C(=O)N[C@H](CCSC)C(N)=O [Peptide 109] (HELM PEPTIDE1{[CCCCCCCC(=O)[*:2]].R.M.R.Y.W.P.[dM].[am]}$$$$V2.0)
